Biological target: T1, human NaV 1.8 (Homo sapiens, UniProt Q9Y5Y9)
T1 construct: expressed in transfected cells; host or cells: HEK (recombinant cell line)
Assay: Automated whole-cell patch clamp (Qube384) voltage-clamp recordings of sodium currents in HEK-NaV1.8 cell line
Format: cell-based
Settings: read-out: Potency category (human NaV 1.8 IC50)
Summary of the method: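 HEK cells expressing NaV1.8 with b3, whole-cell automated voltage clamp at room temperature or 19° C.; CsF-based internal, pH 7.4 external. State-dependent (−120 mV, V1/2 4 s, −10 mV test pulses) and 10/20 Hz 40-pulse protocols; ~12 min compound, vehicle-corrected, IC50 by 4-parameter logistic fit.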

T1 sequence (Q9Y5Y9 whole entry): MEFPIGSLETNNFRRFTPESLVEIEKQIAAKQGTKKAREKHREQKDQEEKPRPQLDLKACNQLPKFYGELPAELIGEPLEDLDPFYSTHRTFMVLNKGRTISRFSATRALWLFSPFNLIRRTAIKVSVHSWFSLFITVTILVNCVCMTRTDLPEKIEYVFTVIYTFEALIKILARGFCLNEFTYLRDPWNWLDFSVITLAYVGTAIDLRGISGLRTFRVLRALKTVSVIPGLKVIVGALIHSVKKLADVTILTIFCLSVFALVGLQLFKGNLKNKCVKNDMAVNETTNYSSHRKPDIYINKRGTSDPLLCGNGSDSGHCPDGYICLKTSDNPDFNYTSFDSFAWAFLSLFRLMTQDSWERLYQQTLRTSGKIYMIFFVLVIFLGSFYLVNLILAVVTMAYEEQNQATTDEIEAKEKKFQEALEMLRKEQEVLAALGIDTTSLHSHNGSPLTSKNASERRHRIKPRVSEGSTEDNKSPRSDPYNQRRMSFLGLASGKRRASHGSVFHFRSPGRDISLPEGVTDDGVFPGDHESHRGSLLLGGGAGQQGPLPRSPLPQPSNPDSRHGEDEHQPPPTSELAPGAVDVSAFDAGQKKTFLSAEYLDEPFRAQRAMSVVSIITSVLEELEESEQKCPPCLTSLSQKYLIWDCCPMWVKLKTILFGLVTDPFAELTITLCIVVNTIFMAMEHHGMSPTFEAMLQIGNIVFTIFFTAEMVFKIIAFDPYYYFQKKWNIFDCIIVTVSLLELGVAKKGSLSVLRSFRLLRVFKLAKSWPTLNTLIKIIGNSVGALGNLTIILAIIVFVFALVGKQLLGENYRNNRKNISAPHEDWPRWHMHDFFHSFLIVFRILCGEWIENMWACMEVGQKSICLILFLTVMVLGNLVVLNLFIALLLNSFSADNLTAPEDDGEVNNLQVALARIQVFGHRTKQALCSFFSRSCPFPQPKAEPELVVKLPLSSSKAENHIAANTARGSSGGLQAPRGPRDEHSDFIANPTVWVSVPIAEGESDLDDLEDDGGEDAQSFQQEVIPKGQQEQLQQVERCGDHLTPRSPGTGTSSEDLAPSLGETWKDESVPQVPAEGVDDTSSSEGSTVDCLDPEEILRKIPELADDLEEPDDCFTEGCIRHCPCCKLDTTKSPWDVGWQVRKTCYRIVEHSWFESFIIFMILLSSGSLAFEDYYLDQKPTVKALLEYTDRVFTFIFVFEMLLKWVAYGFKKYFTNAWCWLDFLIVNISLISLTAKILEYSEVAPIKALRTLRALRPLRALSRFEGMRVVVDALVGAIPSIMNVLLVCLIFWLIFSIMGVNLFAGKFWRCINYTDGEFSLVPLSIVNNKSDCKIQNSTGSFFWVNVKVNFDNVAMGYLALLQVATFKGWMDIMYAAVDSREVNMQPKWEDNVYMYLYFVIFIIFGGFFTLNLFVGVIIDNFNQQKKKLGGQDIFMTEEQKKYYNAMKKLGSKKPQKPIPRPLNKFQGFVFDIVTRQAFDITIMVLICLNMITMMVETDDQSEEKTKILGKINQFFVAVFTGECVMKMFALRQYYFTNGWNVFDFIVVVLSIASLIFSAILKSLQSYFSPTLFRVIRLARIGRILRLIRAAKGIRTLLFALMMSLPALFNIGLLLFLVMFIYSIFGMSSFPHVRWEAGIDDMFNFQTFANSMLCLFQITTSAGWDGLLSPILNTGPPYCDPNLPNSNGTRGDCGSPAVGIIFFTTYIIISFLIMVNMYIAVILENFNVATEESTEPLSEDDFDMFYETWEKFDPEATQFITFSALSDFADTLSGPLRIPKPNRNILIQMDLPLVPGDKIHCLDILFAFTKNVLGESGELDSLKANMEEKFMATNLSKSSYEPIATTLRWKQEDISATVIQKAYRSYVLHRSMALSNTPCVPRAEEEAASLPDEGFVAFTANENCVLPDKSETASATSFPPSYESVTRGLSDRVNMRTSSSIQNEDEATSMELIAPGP

SMILES	IC50
CC1(Cn2nc(C34CC(F)(C3)C4)c(C(F)(F)F)c2C(=O)Nc2cccc(S(C)(=N)=O)c2)CC(F)(F)C1 (single isomer, unassigned) [Example 111b, 1-((3,3-difluoro-1-methylcyclobutyl)methyl)-3-(3-fluorobicyclo[1.1.1]pentan-1-yl)-N-(3-(S-methylsulfonimidoyl)phenyl)-4-(trifluoromethyl)-1H-pyrazole-5-carboxamide]	≤ 0.1 µM
CS(=N)(=O)c1cc(NC(=O)c2c(C(F)(F)F)c(C3CC3)nn2CC2CC3(C2)CC(F)(F)C3)ccn1 (single isomer, unassigned) [Example 27a, 3-cyclopropyl-1-((6,6-difluorospiro[3.3]heptan-2-yl)methyl)-N-(2-(S-methylsulfonimidoyl)pyridin-4-yl)-4-(trifluoromethyl)-1H-pyrazole-5-carboxamide]	≤ 0.1 µM
CS(=N)(=O)c1cc(NC(=O)c2c(C(F)(F)F)c(C3CC3)nn2CC2(F)CC3(CCC3)C2)ccn1 (single isomer, unassigned) [Example 21a, 3-cyclopropyl-1-((2-fluorospiro[3.3]heptan-2-yl)methyl)-N-(2-(S-methylsulfonimidoyl)pyridin-4-yl)-4-(trifluoromethyl)-1H-pyrazole-5-carboxamide]	≤ 0.1 µM
CS(=N)(=O)c1cc(NC(=O)c2c(C(F)(F)F)c(C3CC3)nn2CC23CC(F)(C2)C3)ccn1 (single isomer, unassigned) [Example 25b, 3-cyclopropyl-1-((3-fluorobicyclo[1.1.1]pentan-1-yl)methyl)-N-(2-(S-methylsulfonimidoyl)pyridin-4-yl)-4-(trifluoromethyl)-1H-pyrazole-5-carboxamide]	0.1 to 1 µM
CC1(Cn2nc(C3(C)CC3)c(C(F)(F)F)c2C(=O)Nc2ccnc(S(C)(=N)=O)c2)CC(F)(F)C1 (single isomer, unassigned) [Example 69b, 1-((3,3-difluoro-1-methylcyclobutyl)methyl)-3-(1-methylcyclopropyl)-N-(2-(S-methylsulfonimidoyl)pyridin-4-yl)-4-(trifluoromethyl)-1H-pyrazole-5-carboxamide]	≤ 0.1 µM
C[C@@H]1C[C@H]1c1nn(CC2(C)CC(F)(F)C2)c(C(=O)Nc2ccnc([S@](C)(=N)=O)c2)c1C(F)(F)F (single isomer, unassigned) [Example 65c, 1-((3,3-Difluoro-1-methylcyclobutyl)methyl)-3-((trans)-2-methylcyclopropyl)-N-(2-(S-methylsulfonimidoyl)pyridin-4-yl)-4-(trifluoromethyl)-1H-pyrazole-5-carboxamide]	≤ 0.1 µM
CC1(Cn2nc(C3CC3)c(C(F)(F)F)c2C(=O)Nc2cnnc(S(C)(=N)=O)c2)CC(F)(F)C1 (single isomer, unassigned) [Example 47b, 3-cyclopropyl-1-((3,3-difluoro-1-methylcyclobutyl)methyl)-N-(6-(S-methylsulfonimidoyl)pyridazin-4-yl)-4-(trifluoromethyl)-1H-pyrazole-5-carboxamide]	≤ 0.1 µM
C[S@](=N)(=O)c1cc(NC(=O)c2c(C(F)(F)F)c(C3CC3)nn2C[C@H]2C(F)(F)C23CC3)ccn1 (single isomer, unassigned) [Example 79b, 3-cyclopropyl-1-((2,2-difluorospiro[2.2]pentan-1-yl)methyl)-N-(2-(S-methylsulfonimidoyl)pyridin-4-yl)-4-(trifluoromethyl)-1H-pyrazole-5-carboxamide]	≤ 0.1 µM
CS(=N)(=O)c1cc(NC(=O)c2c(C(F)(F)F)c(C3CC3)nn2C[C@H]2CCC(F)(F)C2)ccn1 (single isomer, unassigned) [Example 17b]	≤ 0.1 µM
CC1(Cn2nc(C3CC3)c(C(F)(F)F)c2C(=O)Nc2cncc(S(C)(=N)=O)c2)CC(F)(F)C1 (single isomer, unassigned) [Example 46a, 3-cyclopropyl-1-((3,3-difluoro-1-methylcyclobutyl)methyl)-N-(5-(S-methylsulfonimidoyl)pyridin-3-yl)-4-(trifluoromethyl)-1H-pyrazole-5-carboxamide]	≤ 0.1 µM
CS(=N)(=O)c1cc(NC(=O)c2c(C(F)(F)F)c(C3CC3)nn2CC2(C(F)(F)F)CCCC2)ccn1 (single isomer, unassigned) [Example 98a, 3-cyclopropyl-N-(2-(S-methylsulfonimidoyl)pyridin-4-yl)-4-(trifluoromethyl)-1-((1-(trifluoromethyl)cyclopentyl)methyl)-1H-pyrazole-5-carboxamide]	≤ 0.1 µM
C[C@H]1C[C@@H]1c1nn(CC2(C)CC(F)(F)C2)c(C(=O)Nc2ccnc([S@@](C)(=N)=O)c2)c1C(F)(F)F (single isomer, unassigned) [Example 65b, 1-((3,3-Difluoro-1-methylcyclobutyl)methyl)-3-((trans)-2-methylcyclopropyl)-N-(2-(S-methylsulfonimidoyl)pyridin-4-yl)-4-(trifluoromethyl)-1H-pyrazole-5-carboxamide]	≤ 0.1 µM
Cc1c(C(C)(F)F)nn(CC2CCC(F)(F)CC2)c1C(=O)Nc1ccnc(S(C)(=N)=O)c1 (single isomer, unassigned) [Example 9b, 1-((4,4-difluorocyclohexyl)methyl)-3-(1,1-difluoroethyl)-4-methyl-N-(2-(S-methylsulfonimidoyl)pyridin-4-yl)-1H-pyrazole-5-carboxamide]	≤ 0.1 µM
CS(=N)(=O)c1cc(NC(=O)c2c(C(F)(F)F)c(C3CC3)nn2CC2C3(CC3)C23CC3)ccn1 (single isomer, unassigned) [Example 80b, 3-cyclopropyl-1-(dispiro[2.0.24.13]heptan-7-ylmethyl)-N-(2-(S-methylsulfonimidoyl)pyridin-4-yl)-4-(trifluoromethyl)-1H-pyrazole-5-carboxamide]	≤ 0.1 µM
CC1(Cn2nc(C3CC(F)(F)C3)c(C(F)(F)F)c2C(=O)Nc2ccnc(S(C)(=N)=O)c2)CC(F)(F)C1 (single isomer, unassigned) [Example 57b, 1-((3,3-Difluoro-1-methylcyclobutyl)methyl)-3-(3,3-difluorocyclobutyl)-N-(2-(S-methylsulfonimidoyl)pyridin-4-yl)-4-(trifluoromethyl)-1H-pyrazole-5-carboxamide]	≤ 0.1 µM

Second part, the compound after the results:

IC50	SMILES
≤ 0.1 µM	CC1(Cn2nc(C3(F)CC3)c(C(F)(F)F)c2C(=O)Nc2cccc(S(=N)(=O)C(F)F)c2)CC(F)(F)C1 (single isomer, unassigned) [Example 130b, 1-((3,3-Difluoro-1-methylcyclobutyl)methyl)-N-(3-(S-(difluoromethyl)sulfonimidoyl)phenyl)-3-(1-fluorocyclopropyl)-4-(trifluoromethyl)-1H-pyrazole-5-carboxamide]
≤ 0.1 µM	CC1(Cn2nc(C3(F)CC3)c(C(F)(F)F)c2C(=O)Nc2ccc(F)c(S(C)(=N)=O)c2)CC(F)(F)C1 (single isomer, unassigned) [Example 126b, 1-((3,3-Difluoro-1-methylcyclobutyl)methyl)-N-(4-fluoro-3-(S-methylsulfonimidoyl)phenyl)-3-(1-fluorocyclopropyl)-4-(trifluoromethyl)-1H-pyrazole-5-carboxamide]
≤ 0.1 µM	CC1(Cn2nc(C3(F)CC3)c(C(F)(F)F)c2C(=O)Nc2cccc(S(=N)(=O)C(F)(F)F)c2)CC(F)(F)C1 (stereo not drawn) [Example 131, 1-((3,3-Difluoro-1-methylcyclobutyl)methyl)-3-(1-fluorocyclopropyl)-4-(trifluoromethyl)-N-(3-(S-(trifluoromethyl)sulfonimidoyl)phenyl)-1H-pyrazole-5-carboxamide]
≤ 0.1 µM	CC1(Cn2nc(C3(F)CC3)c(C(F)(F)F)c2C(=O)Nc2ccc(F)c(S(C)(=N)=O)c2)CC(F)(F)C1 (single isomer, unassigned) [Example 126a, 1-((3,3-Difluoro-1-methylcyclobutyl)methyl)-N-(4-fluoro-3-(S-methylsulfonimidoyl)phenyl)-3-(1-fluorocyclopropyl)-4-(trifluoromethyl)-1H-pyrazole-5-carboxamide]
≤ 0.1 µM	CC1(Cn2nc(C(C)(C)C)c(C(F)(F)F)c2C(=O)Nc2ccnc(S(C)(=N)=O)c2)CC(F)(F)C1 (single isomer, unassigned) [Example 143b, 3-(Tert-butyl)-1-((3,3-difluoro-1-methylcyclobutyl)methyl)-N-(2-(S-methylsulfonimidoyl)pyridin-4-yl)-4-(trifluoromethyl)-1H-pyrazole-5-carboxamide]
1 to 10 µM	CS(=N)(=O)c1cc(NC(=O)c2c(C(F)(F)F)c(C3CC3)nn2CC2CCC23CNC3)ccn1 (single isomer, unassigned) [Example 153c, 1-((2-Azaspiro[3.3]heptan-5-yl)methyl)-3-cyclopropyl-N-(2-(S-methylsulfonimidoyl)pyridin-4-yl)-4-(trifluoromethyl)-1H-pyrazole-5-carboxamide]
≤ 0.1 µM	CC1(Cn2nc(C3(F)CC3)c(C(F)(F)F)c2C(=O)Nc2cccc([S@@](C)(=O)=NC(=O)CO)c2)CC(F)(F)C1 [Example 151a]
≤ 0.1 µM	CC1(Cn2nc(C3CC3)c(C(F)(F)F)c2C(=O)Nc2ccnc(S(C)(=O)=NC#N)c2)CC(F)(F)C1 (single isomer, unassigned) [Example 142a, N-(2-(N-Cyano-S-methylsulfonimidoyl)pyridin-4-yl)-3-cyclopropyl-1-((3,3-difluoro-1-methylcyclobutyl)methyl)-4-(trifluoromethyl)-1H-pyrazole-5-carboxamide]
≤ 0.1 µM	CS(=N)(=O)c1cc(NC(=O)c2c(C(F)(F)F)c(C34CC(C3)C4)nn2CC2C[C@@H]2C(F)F)ccn1 (stereo in doubt) [Example 146, 3-(Bicyclo[1.1.1]pentan-1-yl)-1-(((trans)-2-(difluoromethyl)cyclopropyl)methyl)-N-(2-(S-methylsulfonimidoyl)pyridin-4-yl)-4-(trifluoromethyl)-1H-pyrazole-5-carboxamide]

Reference: patent US12685726B2, “Sulfoximines as inhibitors of NaV1.8” (Gruenenthal GmbH, priority 2022, dated 2026)
